Read-outs that look alike come from different tables or passages of the source.
Assays:
[1] = Chronic DIO Mouse, first study: plasma and brain concentrations; format: in vivo; conditions: male, DIO mice, 2 Hours Post Dose, Day 16, (Std Dev)
Protocol: (§1) Male 14-20-week old diet-induced obese mice were ordered from Taconic. Mice were started on a 60% fat diet (D12492, Research Diets, New Brunswick, N.J.) at 6 weeks of age. Mice were single-housed.
(§2) Test compounds were formulated in 10% PEG400 and 10% solutol. Test compounds were administered by oral gavage (5 ml kg^−1).
(§3) The test compound was formulated in 10% PEG400 and 10% solutol. DIO mice received vehicle, test compound (@ 1, 3 and 10 mg/kg) daily for 26 days. At the end of the experiment, the mice were euthanized and blood and tissues were collected.
Compound #44 was tested according to the procedure as described above, with results as listed in Table BIO-4A through Table BIO4-G, below.

[2] = Chronic DIO Mouse, second study (food intake, body weight, insulin tolerance test, glucose tolerance test, plasma insulin, fed blood glucose); format: in vivo; conditions: DIO mice
Protocol: as §1, §2, §3
Body weight and food weight (food intake) were monitored daily for days 1-5 and twice weekly thereafter. Fed blood glucose was measured weekly.
An insulin tolerance test (0.5 U/kg Humulin, ip) was performed on day 19 after a 4 hour food removal. Blood glucose was measured at 0, 15, 30, 60 and 120 minutes after insulin. […] Blood glucose was measured at 0, 30, 60 and 120 minutes after glucose challenge.
Blood glucose was measured from the tail vein with a Lifescan glucometer. Plasma insulin was measured with an ELISA or HTRF kit (Cisbio). Plasma parameters were measured with an Olympus clinical chemistry analyzer.
In a second study, Compound #44 was tested according to the procedure as described above, with results as listed in Tables BIO-5A through 5G, below.

## O=c1cc(NC2CCN(S(=O)(=O)C(F)(F)F)CC2)c2cc(C(c3ccc(Cl)cc3)c3ccc(Cl)cc3)ccc2[nH]1 [Compound #44, 6-(bis(4-chlorophenyl)methyl)-4-(1-(trifluoromethylsulfonyl)piperidin-4-ylamino)quinolin-2(1H)-one]
[1]; brain, 1 mg/kg daily oral, read-out: Brain concentration
  concentration at 2 h: 59.4 ng/g
[1]; brain, 3 mg/kg daily oral, read-out: Brain concentration
  concentration at 2 h: 114 ng/g
[1]; brain, 10 mg/kg daily oral, read-out: Brain concentration
  concentration at 2 h: 244 ng/g
[1]; plasma, 1 mg/kg daily oral, read-out: Plasma concentration
  concentration at 2 h: 31 ng/mL
[1]; plasma, 3 mg/kg daily oral, read-out: Plasma concentration
  concentration at 2 h: 1510 ng/mL
[1]; plasma, 10 mg/kg daily oral, read-out: Plasma concentration
  concentration at 2 h: 4440 ng/mL
[2]; 0.3 mg/kg
  Insulin Tolerance Test, Blood Glucose AUC: 20233.13 mg·min/dL
  Intraperitoneal Glucose Tolerance Test Blood Glucose AUC: 21550.00 mg·min/dL
  Plasma Insulin (Std Err): 3.89 (0.31) ng/mL
[2]; 0.3 mg/kg, 0 min after glucose
  Intraperitoneal Glucose Tolerance Test Mean Blood Glucose: 155.44 mg/dL
[2]; 0.3 mg/kg, 0 min after insulin
  Insulin Tolerance Test, Mean Blood Glucose: 185.00 mg/dL
[2]; 0.3 mg/kg, 15 min after insulin
  Insulin Tolerance Test, Mean Blood Glucose: 172.38 mg/dL
[2]; 0.3 mg/kg, 30 min after glucose
  Intraperitoneal Glucose Tolerance Test Mean Blood Glucose: 204.33 mg/dL
[2]; 0.3 mg/kg, 30 min after insulin
  Insulin Tolerance Test, Mean Blood Glucose: 164.13 mg/dL
[2]; 0.3 mg/kg, 60 min after glucose
  Intraperitoneal Glucose Tolerance Test Mean Blood Glucose: 187.67 mg/dL
[2]; 0.3 mg/kg, 60 min after insulin
  Insulin Tolerance Test, Mean Blood Glucose: 169.38 mg/dL
[2]; 0.3 mg/kg, 120 min after glucose
  Intraperitoneal Glucose Tolerance Test Mean Blood Glucose: 154.78 mg/dL
[2]; 0.3 mg/kg, 120 min after insulin
  Insulin Tolerance Test, Mean Blood Glucose: 165.13 mg/dL
[2]; 0.3 mg/kg, Day 0
  Fed Blood Glucose (Std Err): 165.4 (8.16) mg/dL
[2]; 0.3 mg/kg, Day 1
  Mean Body Weight: 40.78 Grams
[2]; 0.3 mg/kg, Day 2
  Mean Body Weight: 40.87 Grams
  Mean Daily Food Intake: 2.51 Grams
[2]; 0.3 mg/kg, Day 3
  Mean Body Weight: 40.77 Grams
  Mean Daily Food Intake: 2.92 Grams
[2]; 0.3 mg/kg, Day 4
  Mean Body Weight: 40.33 Grams
  Mean Daily Food Intake: 2.76 Grams
[2]; 0.3 mg/kg, Day 5
  Mean Body Weight: 40.53 Grams
  Mean Daily Food Intake: 2.64 Grams
[2]; 0.3 mg/kg, Day 8
  Mean Body Weight: 40.87 Grams
  Mean Daily Food Intake: 2.80 Grams
[2]; 0.3 mg/kg, Day 10
  Mean Body Weight: 41.06 Grams
  Mean Daily Food Intake: 2.81 Grams
[2]; 0.3 mg/kg, Day 11
  Mean Body Weight: 41.61 Grams
  Mean Daily Food Intake: 2.68 Grams
[2]; 0.3 mg/kg, Day 18
  Fed Blood Glucose (Std Err): 161.22 (6.29) mg/dL
[2]; 1 mg/kg
  Insulin Tolerance Test, Blood Glucose AUC: 21698.33 mg·min/dL
  Intraperitoneal Glucose Tolerance Test Blood Glucose AUC: 22102.50 mg·min/dL
  Plasma Insulin (Std Err): 3.12 (0.64) ng/mL
[2]; 1 mg/kg, 0 min after glucose
  Intraperitoneal Glucose Tolerance Test Mean Blood Glucose: 156.60 mg/dL
[2]; 1 mg/kg, 0 min after insulin
  Insulin Tolerance Test, Mean Blood Glucose: 181.70 mg/dL
[2]; 1 mg/kg, 15 min after insulin
  Insulin Tolerance Test, Mean Blood Glucose: 193.89 mg/dL
[2]; 1 mg/kg, 30 min after glucose
  Intraperitoneal Glucose Tolerance Test Mean Blood Glucose: 225.20 mg/dL
[2]; 1 mg/kg, 30 min after insulin
  Insulin Tolerance Test, Mean Blood Glucose: 170.56 mg/dL
[2]; 1 mg/kg, 60 min after glucose
  Intraperitoneal Glucose Tolerance Test Mean Blood Glucose: 185.50 mg/dL
[2]; 1 mg/kg, 60 min after insulin
  Insulin Tolerance Test, Mean Blood Glucose: 182.78 mg/dL
[2]; 1 mg/kg, 120 min after glucose
  Intraperitoneal Glucose Tolerance Test Mean Blood Glucose: 155.00 mg/dL
[2]; 1 mg/kg, 120 min after insulin
  Insulin Tolerance Test, Mean Blood Glucose: 179.40 mg/dL
[2]; 1 mg/kg, Day 0
  Fed Blood Glucose (Std Err): 170.80 (5.99) mg/dL
[2]; 1 mg/kg, Day 1
  Mean Body Weight: 40.60 Grams
[2]; 1 mg/kg, Day 2
  Mean Body Weight: 40.78 Grams
  Mean Daily Food Intake: 2.84 Grams
[2]; 1 mg/kg, Day 3
  Mean Body Weight: 40.85 Grams
  Mean Daily Food Intake: 2.79 Grams
[2]; 1 mg/kg, Day 4
  Mean Body Weight: 40.36 Grams
  Mean Daily Food Intake: 2.45 Grams
[2]; 1 mg/kg, Day 5
  Mean Body Weight: 40.42 Grams
  Mean Daily Food Intake: 2.49 Grams
[2]; 1 mg/kg, Day 8
  Mean Body Weight: 40.16 Grams
  Mean Daily Food Intake: 2.63 Grams
[2]; 1 mg/kg, Day 10
  Mean Body Weight: 40.73 Grams
  Mean Daily Food Intake: 2.67 Grams
[2]; 1 mg/kg, Day 11
  Mean Body Weight: 40.74 Grams
  Mean Daily Food Intake: 2.57 Grams
[2]; 1 mg/kg, Day 18
  Fed Blood Glucose (Std Err): 151.20 (6.14) mg/dL
[2]; 3 mg/kg
  Insulin Tolerance Test, Blood Glucose AUC: 19435.83 mg·min/dL
  Intraperitoneal Glucose Tolerance Test Blood Glucose AUC: 20854.50 mg·min/dL
  Plasma Insulin (Std Err): 1.74 (0.14) ng/mL
[2]; 3 mg/kg, 0 min after glucose
  Intraperitoneal Glucose Tolerance Test Mean Blood Glucose: 141.30 mg/dL
[2]; 3 mg/kg, 0 min after insulin
  Insulin Tolerance Test, Mean Blood Glucose: 161.10 mg/dL
[2]; 3 mg/kg, 15 min after insulin
  Insulin Tolerance Test, Mean Blood Glucose: 179.67 mg/dL
[2]; 3 mg/kg, 30 min after glucose
  Intraperitoneal Glucose Tolerance Test Mean Blood Glucose: 224.30 mg/dL
[2]; 3 mg/kg, 30 min after insulin
  Insulin Tolerance Test, Mean Blood Glucose: 156.33 mg/dL
[2]; 3 mg/kg, 60 min after glucose
  Intraperitoneal Glucose Tolerance Test Mean Blood Glucose: 174.20 mg/dL
[2]; 3 mg/kg, 60 min after insulin
  Insulin Tolerance Test, Mean Blood Glucose: 167.22 mg/dL
[2]; 3 mg/kg, 120 min after glucose
  Intraperitoneal Glucose Tolerance Test Mean Blood Glucose: 138.90 mg/dL
[2]; 3 mg/kg, 120 min after insulin
  Insulin Tolerance Test, Mean Blood Glucose: 159.78 mg/dL
[2]; 3 mg/kg, Day 0
  Fed Blood Glucose (Std Err): 161.8 (6.57) mg/dL
[2]; 3 mg/kg, Day 1
  Mean Body Weight: 40.54 Grams
[2]; 3 mg/kg, Day 2
  Mean Body Weight: 40.47 Grams
  Mean Daily Food Intake: 2.50 Grams
[2]; 3 mg/kg, Day 3
  Mean Body Weight: 40.24 Grams
  Mean Daily Food Intake: 2.41 Grams
[2]; 3 mg/kg, Day 4
  Mean Body Weight: 39.39 Grams
  Mean Daily Food Intake: 2.02 Grams
[2]; 3 mg/kg, Day 5
  Mean Body Weight: 39.11 Grams
  Mean Daily Food Intake: 2.02 Grams
[2]; 3 mg/kg, Day 8
  Mean Body Weight: 38.59 Grams
  Mean Daily Food Intake: 2.13 Grams
[2]; 3 mg/kg, Day 10
  Mean Body Weight: 38.48 Grams
  Mean Daily Food Intake: 2.57 Grams
[2]; 3 mg/kg, Day 11
  Mean Body Weight: 38.13 Grams
  Mean Daily Food Intake: 2.29 Grams
[2]; 3 mg/kg, Day 18
  Fed Blood Glucose (Std Err): 142.60 (4.44) mg/dL
[2]; 10 mg/kg
  Insulin Tolerance Test, Blood Glucose AUC: 16134.75 mg·min/dL
  Intraperitoneal Glucose Tolerance Test Blood Glucose AUC: 20820.00 mg·min/dL
  Plasma Insulin (Std Err): 1.64 (0.32) ng/mL
[2]; 10 mg/kg, 0 min after glucose
  Intraperitoneal Glucose Tolerance Test Mean Blood Glucose: 149.00 mg/dL
[2]; 10 mg/kg, 0 min after insulin
  Insulin Tolerance Test, Mean Blood Glucose: 161.10 mg/dL
[2]; 10 mg/kg, 15 min after insulin
  Insulin Tolerance Test, Mean Blood Glucose: 143.90 mg/dL
[2]; 10 mg/kg, 30 min after glucose
  Intraperitoneal Glucose Tolerance Test Mean Blood Glucose: 218.50 mg/dL
[2]; 10 mg/kg, 30 min after insulin
  Insulin Tolerance Test, Mean Blood Glucose: 133.60 mg/dL
[2]; 10 mg/kg, 60 min after glucose
  Intraperitoneal Glucose Tolerance Test Mean Blood Glucose: 169.60 mg/dL
[2]; 10 mg/kg, 60 min after insulin
  Insulin Tolerance Test, Mean Blood Glucose: 126.20 mg/dL
[2]; 10 mg/kg, 120 min after glucose
  Intraperitoneal Glucose Tolerance Test Mean Blood Glucose: 146.60 mg/dL
[2]; 10 mg/kg, 120 min after insulin
  Insulin Tolerance Test, Mean Blood Glucose: 136.10 mg/dL
[2]; 10 mg/kg, Day 0
  Fed Blood Glucose (Std Err): 167.9 (4.63) mg/dL
[2]; 10 mg/kg, Day 1
  Mean Body Weight: 40.51 Grams
[2]; 10 mg/kg, Day 2
  Mean Body Weight: 39.87 Grams
  Mean Daily Food Intake: 2.07 Grams
[2]; 10 mg/kg, Day 3
  Mean Body Weight: 39.16 Grams
  Mean Daily Food Intake: 1.63 Grams
[2]; 10 mg/kg, Day 4
  Mean Body Weight: 38.04 Grams
  Mean Daily Food Intake: 1.48 Grams
[2]; 10 mg/kg, Day 5
  Mean Body Weight: 37.5 Grams
  Mean Daily Food Intake: 1.38 Grams
[2]; 10 mg/kg, Day 8
  Mean Body Weight: 35.69 Grams
  Mean Daily Food Intake: 1.64 Grams
[2]; 10 mg/kg, Day 10
  Mean Body Weight: 35.08 Grams
  Mean Daily Food Intake: 2.08 Grams
[2]; 10 mg/kg, Day 11
  Mean Body Weight: 34.63 Grams
  Mean Daily Food Intake: 2.12 Grams
[2]; 10 mg/kg, Day 18
  Fed Blood Glucose (Std Err): 144.30 (6.47) mg/dL

— patent US9266835B2, “Quinoline derivatives useful as CB-1 inverse agonists” (JANSSEN PHARMACEUTICA NV, priority 2014, dated 2016)
